Experimental data from PMC6522912, “Evaluation of the published kinase inhibitor set to identify multiple inhibitors of bacterial ATP-dependent mur ligases” (Journal of Enzyme Inhibition and Medicinal Chemistry, 2019).

Assays:
E. coli MurE = E. coli MurE (Escherichia coli, UniProt P22188); test: Malachite green inhibition assay, MurE; format: biochemical
Protocol: Inhibition of the Mur ligases was determined using the malachite green assay, with slight modifications.
MurE: 50 mM Hepes, pH 8.0, 15 mM MgCl2, 0.005% Triton X-114, 60 µM meso-diaminopimelic acid, 100 µM uridine-5′-diphosphate-N-acetylmuramoyl-L-alanine-D-glutamate, 1000 µM ATP, and purified E. coli MurE[27].
In all cases, the final concentration of DMSO was 5% (v/v). After incubation for 15 min at 37 °C, the enzyme reaction was terminated by addition of 100 µM Biomol green reagent, and the absorbance was measured at 650 nm after 5 min. All of the experiments were run in duplicate. Residual activities were calculated with respect to control assays without the tested compounds, but with the 5% DMSO carrier.
The published kinase inhibitor set compounds were evaluated for inhibition of MurC, D and F ligases from E. coli using the Malachite green assay, which detects orthophosphate generated during enzymatic reactions. To avoid non-specific inhibition due to aggregate formation, all of the compounds were tested in the presence of detergent (0.005% Triton-X114). The data are presented as the residual activities of these Mur ligases in the presence of 100 µM of each test compound (Supporting Information Table S1). […]. The IC50 values against MurC, D, E and F were determined for the selected hit compounds – one representative compound from each structural class was chosen: compound 1[33], aza-stilbene derivative; compound 2[34], alkynyl pyrimidine; compound 3[35], pyrazolo [1,5]-b]pyridazine; compound 4[36], phenoxypyrimidine; compound 5[37], 4,6-bis-anilino-1H-pyrrolo[2,3-pyrimidine (Table 1). […]. […] Among the hits, compounds for further mechanistic studies were chosen on the basis of their ligand efficiency. Ligand efficiency quantifies the molecular properties, particularly size and lipophilicity and is used as a selection criterion for structurally different compounds as more ‘efficient’ ligands have the potential to control for the inflation of these properties[38] Thus ligand efficiencies were calculated for the four hits (Supporting Information Table S2)[39]^,[40], and compound 1 was selected as the most promising for additional studies. Additionally, regarding the data of profiled compounds in large panels of human kinase assays[41] […] To provide sufficient amounts of compound 1 for kinetic and NMR studies, it was resynthesized according to the synthetic procedures (Figure 2) described in the literature.

MurD from E. coli = MurD from E. coli (Escherichia coli, UniProt P14900); test: Steady-state kinetic analysis on MurD; format: biochemical; conditions: for Ki: Ki (µM)
MurD from E. coli, sequence (P14900 whole entry): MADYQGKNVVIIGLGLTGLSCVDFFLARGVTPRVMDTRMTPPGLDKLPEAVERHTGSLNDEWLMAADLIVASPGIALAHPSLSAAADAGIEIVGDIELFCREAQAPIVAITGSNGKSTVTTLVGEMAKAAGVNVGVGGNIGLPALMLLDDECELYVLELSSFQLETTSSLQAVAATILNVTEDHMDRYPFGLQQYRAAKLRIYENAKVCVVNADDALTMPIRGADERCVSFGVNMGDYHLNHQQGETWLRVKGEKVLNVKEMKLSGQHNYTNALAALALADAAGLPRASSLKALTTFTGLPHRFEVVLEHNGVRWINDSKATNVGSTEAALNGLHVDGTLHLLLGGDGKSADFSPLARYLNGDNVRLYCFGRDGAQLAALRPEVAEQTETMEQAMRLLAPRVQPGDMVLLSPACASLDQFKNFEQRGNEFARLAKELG
Protocol: For compound 1, Ki values were determined against MurD from E. coli. Ki determinations were performed under similar conditions to those described for the MurD inhibition assay, where different concentration of one substrate and a fixed concentration of the other two were used. First, the concentration of UMA was varied (10, 20, 40, 80 µM) at fixed ATP (400 µM) and D-Glu (100 µM), then the concentration of D-Glu was varied (50, 100, 200, 400 µM) at fixed ATP (400 µM) and UMA (80 µM), and finally, the concentration of ATP was varied (100, 200, 400, 800 µM) at fixed UMA (80 µM) and D-Glu (100 µM). The concentrations of 1 were 0, 15, 30, 60, 90, 120, 180 and 250 µM. After a 15 min incubation, 100 µM Biomol green reagent was added, and the absorbance was read at 650 nm after 5 min. All of the experiments were run in triplicate. The data were analysed using the SigmaPlot 12.0 software. The initial velocities were fitted to competitive, non-competitive, uncompetitive and mixed enzyme inhibition. The Ki and mode of inhibition from the best ranking model were used, as provided by the software.

[1] = Solubility observations in assay mixtures and NMR buffer; format: physicochemical; conditions: NMR buffer, MurD:ligand molar ratio 1:8, 0.07 mM MurD
MurD = MurD (Escherichia coli, UniProt P14900); test: 1H/13C HSQC NMR study of ligand binding; conditions: chemical shift perturbations, without and with 2 mM AMP-PCP
MurD, sequence (P14900 whole entry): as above
Protocol: The nuclear magnetic resonance (NMR) spectra were recorded at 25 °C on a spectrometer (DirectDrive 800 MHz; Varian, Slovenian NMR centre at National Institute of Chemistry) equipped with a cryoprobe. The pulse sequences provided in the Varian BioPack library of pulse programmes was used. The samples were prepared in 90% H2O/10% DMSO-d6 buffer containing 20 mM HEPES, 7 mM (NH4)2SO4, 3.5 mM MgCl2, and 2 mM dithiothreitol, pH 7.2. Here, 0.07 mM MurD that was selectively labelled with ^13 C at the methyl groups of Ile (δ1 only), Val and Leu was used. The protein was titrated using compound 1 in MurD:ligand molar ratios of 0.5, 1, 2, 4 and 8, without and with 2 mM β,γ-methyleneadenosine 5'-triphosphate (AMP–PCP). […] The final concentration of DMSO-d6 was 12% (v/v). The variation of DMSO from 10 to 12% (v/v) affects the chemical shift perturbations by <0.02 ppm[31].
The heteronuclear single quantum coherence (HSQC) spectra for ^1H/^13C were acquired with 1024 data points in t2, 32 scans, 64 complex points in t1, and relaxation delay of 1 s. […] The spectra were processed and analysed with the Felix 2007 software package (Felix NMR Inc., Laboratory of Biomolecular Structure at National Institute of Chemistry). […] The combined ^1H/^13C chemical shift perturbations (Δδ) were calculated from the ^1H and ^13C chemical shift perturbations using Equation (1)[32]: (1) Δδ=((Δδ^1H)^2+(0.252×Δδ^13C)^2)^1/2. […]

E. coli MurE, sequence (P22188 whole entry): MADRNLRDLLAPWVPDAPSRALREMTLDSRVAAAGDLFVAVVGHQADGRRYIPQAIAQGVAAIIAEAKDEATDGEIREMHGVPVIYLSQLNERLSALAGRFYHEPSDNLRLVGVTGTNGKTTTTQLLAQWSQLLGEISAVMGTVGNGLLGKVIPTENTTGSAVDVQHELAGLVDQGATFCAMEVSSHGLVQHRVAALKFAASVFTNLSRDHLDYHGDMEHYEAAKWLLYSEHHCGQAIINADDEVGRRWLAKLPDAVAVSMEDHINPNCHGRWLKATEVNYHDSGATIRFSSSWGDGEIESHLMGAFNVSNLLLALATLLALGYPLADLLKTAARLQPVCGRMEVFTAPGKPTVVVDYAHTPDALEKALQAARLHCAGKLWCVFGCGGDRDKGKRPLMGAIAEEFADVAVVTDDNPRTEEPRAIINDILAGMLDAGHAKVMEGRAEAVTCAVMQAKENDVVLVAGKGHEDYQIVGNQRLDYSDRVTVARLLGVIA

**Q.** Which IC50 (E. coli MurE) does the source give for `Cc1cc(-c2ccco2)cc(C)c1/C=C/c1cncc(-c2nn[nH]n2)c1` [Compound 1] here?
**A.** 79 µM

**Q.** And the “RA (%) MurE” value (E. coli MurE; Table S3, aza stilbene compounds)?
**A.** 49%

**Q.** What about the “MurE RA [%]” value (E. coli MurE; residual activity at 100 µM compound, Table 1) of the same compound?
**A.** 49%

**Q.** What about the Ki (MurD from E. coli; substrate ATP varied, fixed D-Glu 100 µM, UMA 80 µM) of the same compound?
**A.** 18.7 ± 2.6 µM

**Q.** And the Ki (MurD from E. coli; substrate D-Glu varied, fixed ATP 400 µM, UMA 80 µM)?
**A.** 65.5 ± 4.9 µM

**Q.** What about the Ki (MurD from E. coli; substrate UMA varied, fixed ATP 400 µM, D-Glu 100 µM) of the same compound?
**A.** 14.8 ± 11.2 µM

**Q.** And the Inhibition mechanism (MurD from E. coli; versus substrate ATP)?
**A.** Mixed (full)

**Q.** What about the Inhibition mechanism (MurD from E. coli; versus substrate D-Glu) of the same compound?
**A.** Competitive (full)

**Q.** What about the Inhibition mechanism (MurD from E. coli; versus substrate UMA) of the same compound?
**A.** Mixed (partial)

**Q.** And the solubility [1]?
**A.** not completely dissolved

**Q.** And the “binding site on MurD” value (MurD)?
**A.** binds to the D-Glu binding site
